The record followed here is US11306064B2, “Benzothia(di)azepine compounds and their use as bile acid modulators” (Albireo AB, priority 2018, dated 2022).

Usually IC50 stands for the concentration needed to halve the response being measured.

For the test, the target named is T1, Human ASBT (Homo sapiens, UniProt Q12908).
T1 construct: expressed in transfected cells; kept under Puromycin selection
T1 sequence (Q12908 1-348): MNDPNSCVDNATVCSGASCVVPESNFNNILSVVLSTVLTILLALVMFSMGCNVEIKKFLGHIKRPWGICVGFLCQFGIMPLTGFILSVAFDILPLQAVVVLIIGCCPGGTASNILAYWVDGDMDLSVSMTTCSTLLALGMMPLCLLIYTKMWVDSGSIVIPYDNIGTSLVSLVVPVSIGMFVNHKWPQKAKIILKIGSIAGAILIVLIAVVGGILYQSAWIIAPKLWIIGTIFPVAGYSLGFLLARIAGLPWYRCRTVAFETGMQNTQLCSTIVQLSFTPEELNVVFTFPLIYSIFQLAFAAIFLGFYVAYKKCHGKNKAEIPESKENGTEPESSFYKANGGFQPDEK
In words: ASBT (h/m) assay: 3H-taurocholic acid uptake in human ASBT-overexpressing cells. The note with it: 0.25 μM 3H-taurocholic acid and 5 μM cold taurocholic acid, 20 minutes, read-out: hASBT IC50. Type of test: cell-based. In outline:
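ASBT-overexpressing cells, seeded 48 h earlier, took up 0.25 µM 3H-taurocholic acid plus 5 µM cold taurocholate for 20 min at 37 °C with inhibitor (10-point 3-fold series, top 10 µM, 0.2% DMSO). Ice stop, washes with cold 1 mM taurocholate in HEPES-HBSS pH 7.4, scintillation counting.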
For the compound `CCCCC1(CC)CN(c2ccccc2)c2cc(Br)c(O/C=C/C(=O)O)cc2S(=O)(=O)C1` (single isomer, unassigned) [Example 6, (E)-3-((7-bromo-3-butyl-3-ethyl-1,1-dioxido-5-phenyl-2,3,4,5-tetrahydro-1,5-benzothiazepin-8-yl)oxy)acrylic acid], the IC50 was 0.057 µM.
The same measure for `CCCCC1(CC)CN(c2ccccc2)c2cc(SC)c(O/C=C/C(=O)O)cc2S(=O)(=O)C1` (single isomer, unassigned) [Example 18, (E)-3-((3-butyl-3-ethyl-7-(methylthio)-1,1-dioxido-5-phenyl-2,3,4,5-tetrahydro-1,5-benzothiazepin-8-yl)oxy)acrylic acid]: 0.019 µM; for `CCCCC1(CC)CN(c2ccccc2)c2cc(SC)c(O/C=C(\F)C(=O)O)cc2S(=O)(=O)C1` (single isomer, unassigned) [Example 43, (Z)-3-((3-butyl-3-ethyl-7-(methylthio)-1,1-dioxido-5-phenyl-2,3,4,5-tetrahydro-1,5-benzothiazepin-8-yl)oxy)-2-fluoroacrylic acid]: 0.021 µM; for `CCCCC1(CC)CN(c2ccccc2)c2cc(Cl)c(O/C=C(\F)C(=O)O)cc2S(=O)(=O)C1` (single isomer, unassigned) [Example 48, (Z)-3-((3-butyl-7-chloro-3-ethyl-1,1-dioxido-5-phenyl-2,3,4,5-tetrahydro-1,5-benzothiazepin-8-yl)oxy)-2-fluoroacrylic acid]: 0.042 µM.
Turning to `CCCCC1(CCCC)CN(c2ccccc2)c2cc(SC)c(O/C=C(\F)C(=O)O)cc2S(=O)(=O)C1` [Example 11, (Z)-3-((3,3-dibutyl-7-(methylthio)-1,1-dioxido-5-phenyl-2,3,4,5-tetrahydro-1,5-benzothiazepin-8-yl)oxy)-2-fluoroacrylic acid], the half-inhibitory concentration (IC50) turned out to be 0.048 µM.
As for `CCC1(CC)CN(c2ccccc2)c2cc(SC)c(O/C=C(\F)C(=O)O)cc2S(=O)(=O)C1` [Example 44, (Z)-3-((3,3-diethyl-7-(methylthio)-1,1-dioxido-5-phenyl-2,3,4,5-tetrahydro-1,5-benzothiazepin-8-yl)oxy)-2-fluoroacrylic Acid], the figure is 0.257 µM.
